Reference: PubChem BioAssay (NCI)
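Cells were grown in 96-well plates and exposed to each compound for 48 hours at five concentrations; endpoints were interpolated linearly between bracketing concentrations, or set to the highest concentration if not reached. At the GI50, growth is halved. At the TGI there is no net growth.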

What was measured:
Assay in all cases: inhibition of tumour cell growth, NCI panel, 48 h
RXF 393 renal = tested on: RXF 393 renal
DLD-1 colon = tested on: DLD-1 colon
KM20L2 colon = tested on: KM20L2 colon
CCRF-CEM leukemia = tested on: CCRF-CEM leukemia
NCI-H522 lung = tested on: NCI-H522 lung
A549 NSCLC = tested on: A549 NSCLC
OVCAR-8 ovarian = tested on: OVCAR-8 ovarian
SNB-19 CNS = tested on: SNB-19 CNS
NCI/ADR-RES ovarian = tested on: NCI/ADR-RES ovarian
HS 578T breast = tested on: HS 578T breast

C/C(CC(=O)Nc1cccc([N+](=O)[O-])c1)=N\NC(=O)CC#N
TGI (RXF 393 renal): > 100 µM | TGI (DLD-1 colon): > 100 µM | TGI (KM20L2 colon): > 100 µM | TGI (CCRF-CEM leukemia): > 100 µM | TGI (NCI-H522 lung): > 100 µM | TGI (A549 NSCLC): > 100 µM | TGI (OVCAR-8 ovarian): > 100 µM

Cn1cc(C2=C(c3cn(CCCCC(=N)N)c4ccccc34)C(=O)NC2=O)c2ccccc21
GI50 (RXF 393 renal): > 25 µM | TGI (RXF 393 renal): > 25 µM | GI50 (SNB-19 CNS): 21.8 µM | TGI (SNB-19 CNS): > 25 µM | GI50 (NCI/ADR-RES ovarian): > 25 µM | TGI (NCI/ADR-RES ovarian): > 25 µM | GI50 (CCRF-CEM leukemia): 11.5 µM | TGI (CCRF-CEM leukemia): > 25 µM | GI50 (NCI-H522 lung): 18.6 µM | TGI (NCI-H522 lung): > 25 µM | GI50 (HS 578T breast): > 25 µM | TGI (HS 578T breast): > 25 µM | GI50 (A549 NSCLC): > 25 µM | TGI (A549 NSCLC): > 25 µM | GI50 (OVCAR-8 ovarian): > 25 µM | TGI (OVCAR-8 ovarian): > 25 µM

O=CCCCC(Sc1ccccc1)Sc1ccccc1
TGI (DLD-1 colon): 31.6 µM | TGI (SNB-19 CNS): > 100 µM | TGI (KM20L2 colon): > 100 µM | TGI (CCRF-CEM leukemia): 44.6 µM | TGI (NCI-H522 lung): > 100 µM | TGI (A549 NSCLC): > 100 µM | TGI (OVCAR-8 ovarian): 35.8 µM

O=C1/C(=C\c2ccccc2)C2OCC=C3CN4CCC56c7ccccc7N1C5C2C3CC46 (stereo not given)
GI50 (RXF 393 renal): 35.8 µM | TGI (RXF 393 renal): > 100 µM | GI50 (SNB-19 CNS): > 100 µM | TGI (SNB-19 CNS): > 100 µM | GI50 (NCI/ADR-RES ovarian): > 100 µM | TGI (NCI/ADR-RES ovarian): > 100 µM | GI50 (CCRF-CEM leukemia): 6.06 µM | TGI (CCRF-CEM leukemia): > 100 µM | GI50 (NCI-H522 lung): 8.01 µM | TGI (NCI-H522 lung): > 100 µM | GI50 (HS 578T breast): 62.5 µM | TGI (HS 578T breast): > 100 µM | GI50 (A549 NSCLC): > 100 µM | TGI (A549 NSCLC): > 100 µM | GI50 (OVCAR-8 ovarian): 85.8 µM | TGI (OVCAR-8 ovarian): > 100 µM

Cc1ccc(-c2n[nH]c(=O)c3noc(-c4ccc(C)cc4)c23)cc1
GI50 (RXF 393 renal): 0.419 µM | TGI (RXF 393 renal): 2.08 µM | GI50 (SNB-19 CNS): 2.13 µM | TGI (SNB-19 CNS): 42.8 µM | GI50 (NCI/ADR-RES ovarian): 0.623 µM | TGI (NCI/ADR-RES ovarian): > 100 µM | GI50 (CCRF-CEM leukemia): 2.45 µM | TGI (CCRF-CEM leukemia): > 100 µM | GI50 (NCI-H522 lung): 0.411 µM | TGI (NCI-H522 lung): 4.98 µM | GI50 (HS 578T breast): 1.31 µM | TGI (HS 578T breast): 15.9 µM | GI50 (A549 NSCLC): 0.74 µM | TGI (A549 NSCLC): > 100 µM | GI50 (OVCAR-8 ovarian): 1.82 µM | TGI (OVCAR-8 ovarian): 27.7 µM

C#CCOCn1cnc2ncnc(N)c21
TGI (RXF 393 renal): > 100 µM | TGI (DLD-1 colon): > 100 µM | TGI (SNB-19 CNS): > 100 µM | TGI (CCRF-CEM leukemia): > 100 µM | TGI (NCI-H522 lung): > 100 µM | TGI (A549 NSCLC): > 100 µM | TGI (OVCAR-8 ovarian): > 100 µM

CCOC(=O)CC(NC(=O)c1ccc(N=NN(C)C)cc1)C(=O)OCC (stereo not given)
TGI (DLD-1 colon): > 100 µM | TGI (SNB-19 CNS): > 100 µM | TGI (CCRF-CEM leukemia): > 100 µM | TGI (NCI-H522 lung): > 100 µM | TGI (A549 NSCLC): > 100 µM | TGI (OVCAR-8 ovarian): > 100 µM

NC(=O)c1ccc(N(C(N)=O)c2c(F)cccc2F)nc1-c1ccc(F)cc1F
GI50 (RXF 393 renal): > 100 µM | TGI (RXF 393 renal): > 100 µM | GI50 (SNB-19 CNS): > 100 µM | TGI (SNB-19 CNS): > 100 µM | GI50 (NCI/ADR-RES ovarian): > 100 µM | TGI (NCI/ADR-RES ovarian): > 100 µM | GI50 (CCRF-CEM leukemia): > 100 µM | TGI (CCRF-CEM leukemia): > 100 µM | GI50 (NCI-H522 lung): > 100 µM | TGI (NCI-H522 lung): > 100 µM | GI50 (HS 578T breast): > 100 µM | TGI (HS 578T breast): > 100 µM | GI50 (A549 NSCLC): > 100 µM | TGI (A549 NSCLC): > 100 µM | GI50 (OVCAR-8 ovarian): > 100 µM | TGI (OVCAR-8 ovarian): > 100 µM

CC(=O)[C-](C(C)=O)c1ccccc1.CC(=O)[C-](C(C)=O)c1ccccc1.CC(=O)[C-](C(C)=O)c1ccccc1.[Cl-].[Zr+4]
GI50 (RXF 393 renal): 28.1 µM | TGI (RXF 393 renal): 98.3 µM | GI50 (SNB-19 CNS): 82.9 µM | TGI (SNB-19 CNS): > 100 µM | GI50 (KM20L2 colon): > 100 µM | TGI (KM20L2 colon): > 100 µM | GI50 (NCI-H522 lung): > 100 µM | TGI (NCI-H522 lung): > 100 µM | GI50 (A549 NSCLC): > 100 µM | TGI (A549 NSCLC): > 100 µM | GI50 (OVCAR-8 ovarian): 57.5 µM | TGI (OVCAR-8 ovarian): > 100 µM

CC(=O)c1c2c(cc3c1CC1(C3)Cc3cc4c(c(C(=O)O)c3C1)CCC4)CCC2 (stereo not given)
TGI (RXF 393 renal): > 100 µM | TGI (DLD-1 colon): > 100 µM | TGI (SNB-19 CNS): > 100 µM | TGI (CCRF-CEM leukemia): 69.7 µM | TGI (NCI-H522 lung): 42.3 µM | TGI (A549 NSCLC): > 100 µM | TGI (OVCAR-8 ovarian): > 100 µM
